Results published in PubChem BioAssay AID2060498 (Molecular Pharmacology Branch, DTP, NCI, 2025).

Tested on: 171881-019-R-J1-PDC tumor spheroids, viability
Assay: Anticancer human tumor 171881-019-R-J1-PDC patient-derived invasive breast carcinoma cell line growth inhibition [GQUAD]
Details: spheroids with HUVEC and MSC; for IC50: curve of first compound; for viability, T/C: stronger effect = lower value
Method in brief: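 Tumor cells were grown as complex spheroids with HUVEC endothelial cells and mesenchymal stem cells as stroma. G-quadruplex stabilizers were combined with targeted agents over half-log dilutions from near the clinical Cmax, or from 10 microM.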

[1] = second compound 0.0316 µM, first compound 0.0316 µM
[2] = second compound 0.0316 µM, first compound 0.1 µM
[3] = second compound 0.0316 µM, first compound 0.316 µM
[4] = second compound 0.0316 µM, first compound 1 µM
[5] = second compound 0.0316 µM, first compound 3.16 µM
[6] = second compound 0.0316 µM, first compound 10 µM
[7] = second compound 0.1 µM, first compound 0.0316 µM
[8] = second compound 0.1 µM, first compound 0.1 µM
[9] = second compound 0.1 µM, first compound 0.316 µM
[10] = second compound 0.1 µM, first compound 1 µM
[11] = second compound 0.1 µM, first compound 3.16 µM
[12] = second compound 0.1 µM, first compound 10 µM
[13] = second compound 0.316 µM, first compound 0.0316 µM
[14] = second compound 0.316 µM, first compound 0.1 µM
[15] = second compound 0.316 µM, first compound 0.316 µM
[16] = second compound 0.316 µM, first compound 1 µM
[17] = second compound 0.316 µM, first compound 3.16 µM
[18] = second compound 0.316 µM, first compound 10 µM
[19] = second compound 1 µM, first compound 0.0316 µM
[20] = second compound 1 µM, first compound 0.1 µM
[21] = second compound 1 µM, first compound 0.316 µM
[22] = second compound 1 µM, first compound 1 µM
[23] = second compound 1 µM, first compound 3.16 µM
[24] = second compound 1 µM, first compound 10 µM
[25] = second compound 3.16 µM, first compound 0.0316 µM
[26] = second compound 3.16 µM, first compound 0.1 µM
[27] = second compound 3.16 µM, first compound 0.316 µM
[28] = second compound 3.16 µM, first compound 1 µM
[29] = second compound 3.16 µM, first compound 3.16 µM
[30] = second compound 3.16 µM, first compound 10 µM
[31] = second compound 10 µM, first compound 0.0316 µM
[32] = second compound 10 µM, first compound 0.1 µM
[33] = second compound 10 µM, first compound 0.316 µM
[34] = second compound 10 µM, first compound 1 µM
[35] = second compound 10 µM, first compound 3.16 µM
[36] = second compound 10 µM, first compound 10 µM
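Note: spheroids exposed to compounds for 7 days.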
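Throughout, for viability, T/C: 100% = DMSO vehicle control viability.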

For `CCCS(=O)(=O)Nc1ccc(F)c(C(=O)c2c[nH]c3ncc(-c4ccc(Cl)cc4)cc23)c1F` + Cc1cnc(CNC(=O)c2c(=O)c3ccc(N4CCCN(C)CC4)nc3n3c2sc2ccccc23)cn1, the IC50 (second compound 0.0316 µM) was over 10000 nM, the IC50 (second compound 0.1 µM) was over 10000 nM and the IC50 (second compound 0.316 µM) was over 10000 nM. It also gave an IC50 (second compound 1 µM) of over 10000 nM, an IC50 (second compound 3.16 µM) of over 10000 nM and an IC50 (second compound 10 µM) of over 10000 nM. It also gave a viability, T/C [1] of 104%, a viability, T/C [2] of 95.3% and a viability, T/C [3] of 108%. The viability, T/C [4] was 112%, the viability, T/C [5] was 117% and the viability, T/C [6] was 69.3%. For the same compound, the viability, T/C [7] was 83%, the viability, T/C [8] was 95.2% and the viability, T/C [9] was 90.4%. It also gave a viability, T/C [10] of 102%, a viability, T/C [11] of 92.2% and a viability, T/C [12] of 54.9%. The viability, T/C [13] was 78%, the viability, T/C [14] was 78.8% and the viability, T/C [15] was 81.9%. It also gave a viability, T/C [16] of 78.7%, a viability, T/C [17] of 91.9% and a viability, T/C [18] of 52.1%. For the same compound, the viability, T/C [19] was 72.1%, the viability, T/C [20] was 66.5% and the viability, T/C [21] was 79.5%. The viability, T/C [22] was 69.5%, the viability, T/C [23] was 82.3% and the viability, T/C [24] was 59.6%. For the same compound, the viability, T/C [25] was 63.9%, the viability, T/C [26] was 61.8% and the viability, T/C [27] was 68.5%. It also gave a viability, T/C [28] of 66.6%, a viability, T/C [29] of 67.5% and a viability, T/C [30] of 53%. It also gave a viability, T/C [31] of 59.9%, a viability, T/C [32] of 62.1% and a viability, T/C [33] of 59.4%. For the same compound, the viability, T/C [34] was 68%, the viability, T/C [35] was 68.4% and the viability, T/C [36] was 51.8%.

With `C#Cc1c(F)ccc2cc(O)cc(-c3ncc4c(N5CC6CCC(C5)N6)nc(OCC56CCCN5CC(F)C6)nc4c3F)c12` (centres undefined) + CN(C)c1ccc(Nc2c3ccc(NC(=O)CCN4CCCC4)cc3nc3cc(NC(=O)CCN4CCCC4)ccc23)cc1 the IC50 (second compound 0.0316 µM) was 509 nM, the IC50 (second compound 0.1 µM) was 362 nM and the IC50 (second compound 0.316 µM) was under 31.6 nM. For the same compound, the IC50 (second compound 1 µM) was under 31.6 nM, the IC50 (second compound 3.16 µM) was under 31.6 nM and the IC50 (second compound 10 µM) was under 31.6 nM. The viability, T/C [1] was 91.8%, the viability, T/C [2] was 77.2% and the viability, T/C [3] was 53.9%. The viability, T/C [4] was 41.5%, the viability, T/C [5] was 25.2% and the viability, T/C [6] was 11.2%. It also gave a viability, T/C [7] of 87.8%, a viability, T/C [8] of 68.1% and a viability, T/C [9] of 52%. It also gave a viability, T/C [10] of 35%, a viability, T/C [11] of 23.7% and a viability, T/C [12] of 8.76%. It also gave a viability, T/C [13] of 43.1%, a viability, T/C [14] of 33.4% and a viability, T/C [15] of 24.5%. It also gave a viability, T/C [16] of 15.3%, a viability, T/C [17] of 11.9% and a viability, T/C [18] of 0.81%. It also gave a viability, T/C [19] of 3.77%, a viability, T/C [20] of 3.04% and a viability, T/C [21] of 3.15%. The viability, T/C [22] was 1.14%, the viability, T/C [23] was 1% and the viability, T/C [24] was 0.07%. For the same compound, the viability, T/C [25] was 0.2%, the viability, T/C [26] was 0.29% and the viability, T/C [27] was 0.47%. The viability, T/C [28] was 0.22%, the viability, T/C [29] was 0.17% and the viability, T/C [30] was 0.1%. For the same compound, the viability, T/C [31] was 0.11%, the viability, T/C [32] was 0.1% and the viability, T/C [33] was 0.13%. It also gave a viability, T/C [34] of 0.26%, a viability, T/C [35] of 0.26% and a viability, T/C [36] of 0.13%.
